Where “and” joins values, the source holds several entries; their conditions need not be identical. Identical values can stand only once. Like-named read-outs stand apart in the source and are kept apart here.
How the values were obtained:
human OCTN1 (hOCTN1) = target: T1, human OCTN1 (hOCTN1) (Homo sapiens, UniProt Q9H015); assay: Uptake of the extended cocktail by HEK293 cells overexpressing hOCTN1; type: in vitro ADME; conditions: Fig. 6
T1 construct: expressed in transfected cells
T1 sequence (Q9H015 1-551): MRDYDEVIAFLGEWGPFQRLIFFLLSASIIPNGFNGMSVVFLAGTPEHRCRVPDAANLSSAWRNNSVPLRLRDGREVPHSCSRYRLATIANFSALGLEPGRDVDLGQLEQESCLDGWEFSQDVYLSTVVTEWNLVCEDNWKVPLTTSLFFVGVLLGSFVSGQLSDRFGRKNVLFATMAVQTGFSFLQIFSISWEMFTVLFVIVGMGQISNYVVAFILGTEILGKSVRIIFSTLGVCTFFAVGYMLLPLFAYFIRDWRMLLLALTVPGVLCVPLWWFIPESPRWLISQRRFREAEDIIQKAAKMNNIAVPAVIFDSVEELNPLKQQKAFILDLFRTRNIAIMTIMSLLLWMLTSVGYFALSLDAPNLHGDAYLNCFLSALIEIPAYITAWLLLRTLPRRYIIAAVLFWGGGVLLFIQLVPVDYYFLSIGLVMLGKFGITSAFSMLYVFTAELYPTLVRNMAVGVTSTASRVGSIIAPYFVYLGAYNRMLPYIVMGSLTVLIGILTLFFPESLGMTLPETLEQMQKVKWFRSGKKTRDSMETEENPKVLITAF

human OCTN2 (hOCTN2) = target: T2, human OCTN2 (hOCTN2) (Homo sapiens, UniProt O76082); assay: Uptake of the extended cocktail by HEK293 cells overexpressing hOCTN2; type: in vitro ADME; conditions: Fig. 6
T2 construct: expressed in transfected cells
T2 sequence (O76082 1-557): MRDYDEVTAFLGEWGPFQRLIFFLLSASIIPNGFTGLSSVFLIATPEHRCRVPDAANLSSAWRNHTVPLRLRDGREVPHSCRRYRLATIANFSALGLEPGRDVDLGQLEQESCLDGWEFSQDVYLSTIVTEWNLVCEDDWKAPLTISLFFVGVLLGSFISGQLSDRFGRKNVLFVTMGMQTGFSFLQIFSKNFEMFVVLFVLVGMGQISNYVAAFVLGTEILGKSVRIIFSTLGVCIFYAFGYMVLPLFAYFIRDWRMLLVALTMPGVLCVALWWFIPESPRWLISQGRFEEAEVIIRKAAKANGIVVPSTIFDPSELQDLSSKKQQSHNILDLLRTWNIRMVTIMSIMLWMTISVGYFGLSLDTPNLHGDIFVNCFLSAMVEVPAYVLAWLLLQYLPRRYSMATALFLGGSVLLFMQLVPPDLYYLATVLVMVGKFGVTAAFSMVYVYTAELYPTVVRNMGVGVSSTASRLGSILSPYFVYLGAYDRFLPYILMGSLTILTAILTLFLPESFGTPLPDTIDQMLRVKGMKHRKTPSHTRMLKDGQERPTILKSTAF

OCT1 [1] = conditions: read-out: inhibitory potency for metformin uptake via OCT1; substrate metformin; ref Ahlin et al, 2011; Panfen et al, 2019; cited from earlier work
human OCT1 (hOCT1) [2] = target: T3, human OCT1 (hOCT1) (Homo sapiens, UniProt O15245); assay: Inhibition of OCT1-mediated uptake of the cocktail substrates in HEK293 cells overexpressing human OCT1; conditions: for IC50: human OCT1, mean ± SD
T3 sequence (O15245 1-554): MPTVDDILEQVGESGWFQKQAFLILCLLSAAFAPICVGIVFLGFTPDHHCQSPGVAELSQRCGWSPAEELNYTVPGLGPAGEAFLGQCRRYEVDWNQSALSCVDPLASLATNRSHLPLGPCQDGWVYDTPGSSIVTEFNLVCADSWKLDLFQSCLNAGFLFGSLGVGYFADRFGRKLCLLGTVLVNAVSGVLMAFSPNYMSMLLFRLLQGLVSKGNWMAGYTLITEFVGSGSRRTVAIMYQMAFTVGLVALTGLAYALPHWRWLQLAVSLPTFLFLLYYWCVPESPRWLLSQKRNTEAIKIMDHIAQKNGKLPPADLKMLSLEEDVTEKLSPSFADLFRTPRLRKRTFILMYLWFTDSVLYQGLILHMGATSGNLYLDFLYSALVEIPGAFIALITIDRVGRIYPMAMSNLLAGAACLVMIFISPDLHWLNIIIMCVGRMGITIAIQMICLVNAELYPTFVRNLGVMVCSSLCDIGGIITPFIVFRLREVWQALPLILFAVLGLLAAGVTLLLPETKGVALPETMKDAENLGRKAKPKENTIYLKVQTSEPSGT

mouse OCT1 [3] = target: T4, mouse OCT1 (Mus musculus, UniProt O08966)
T4 sequence (O08966 1-556): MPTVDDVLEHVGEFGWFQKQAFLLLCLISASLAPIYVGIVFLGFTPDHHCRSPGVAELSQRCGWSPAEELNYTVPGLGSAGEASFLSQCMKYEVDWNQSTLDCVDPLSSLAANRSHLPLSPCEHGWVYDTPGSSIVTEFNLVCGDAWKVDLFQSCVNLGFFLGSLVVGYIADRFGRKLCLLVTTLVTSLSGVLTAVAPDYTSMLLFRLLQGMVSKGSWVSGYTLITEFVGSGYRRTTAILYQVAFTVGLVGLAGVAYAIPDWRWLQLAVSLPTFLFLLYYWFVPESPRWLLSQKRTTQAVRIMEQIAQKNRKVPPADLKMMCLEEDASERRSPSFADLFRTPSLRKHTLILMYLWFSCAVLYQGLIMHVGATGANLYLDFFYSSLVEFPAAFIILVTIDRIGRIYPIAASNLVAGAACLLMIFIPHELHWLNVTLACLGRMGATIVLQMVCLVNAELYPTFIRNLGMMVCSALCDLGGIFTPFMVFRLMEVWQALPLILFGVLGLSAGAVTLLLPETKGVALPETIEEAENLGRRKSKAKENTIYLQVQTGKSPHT
Procedure: Therefore, the calculation method used for hepatic uptake transporters such as organic anion transporting polypeptide (OATP) 1B1 and OATP1B3 was also applied for OCT1.
(§1) Ka was calculated manually based on available pharmacokinetic parameters.

[4] = cited from earlier work; for cmax = Imax: dose and route as in Supplemental Table 4, ref Hardman, 2018, fenoterol Tzvetkov et al; for cmax = Imax / fraction unbound: ipratropium Zhang et al, 2023; for fraction unbound: fraction unbound in plasma, ref Hardman, 2018, Lombardo et al (2018), fenoterol Tzvetkov et al; for tmax: p.o., ref Hardman, 2018
[5] = Pharmacokinetic parameters used for estimating the potential for DDIs; type: in vivo, human; conditions: for Imax, portal: Iin,max=Imax+Fa×ka×D/Qh, Qh 97 L/h, Fa 1, Imax for fenoterol and ipratropium; for ka: first-order absorption rate constant, calculated manually from available pharmacokinetic parameters
Procedure: as §1

mOct1 = system: mOct1; parameters: method as in ref column References of Table 2 (Morse et al, 2020; Jensen et al, 2020; Meyer et al, 2022); conditions: literature values; References of Table 2 (Morse et al, 2020; Jensen et al, 2020; Meyer et al, 2022); cited from earlier work
OCT1 [6] = target: T5, OCT1 (Homo sapiens, UniProt O15245); assay: DDI risk R calculated from IC50 at human OCT1; conditions: R=1+fup×Iin,max/IC50, cutoff R ≥ 1.1
T5 sequence (O15245 1-554): T3 sequence (O15245 1-554)

human OCT1 (hOCT1) [7] = target: T3, human OCT1 (hOCT1); parameters: expressed in transfected cells; empty vector control pcDNA5; method as in ref column References of Table 2 (Tzvetkov et al, 2018; Morse et al, 2020; Jensen et al, 2020; Meyer et al, 2019, 2022; Wittern et al, 2024 and own unpublished data; Elsby et al, 2017); conditions: literature values; References of Table 2 (Tzvetkov et al, 2018; Morse et al, 2020; Jensen et al, 2020; Meyer et al, 2019, 2022; Wittern et al, 2024 and own unpublished data; Elsby et al, 2017); cited from earlier work
mouse OCT1 [8] = target: T4, mouse OCT1; assay: Uptake of the cocktail by HEK293 cells overexpressing mouse Oct1; conditions: fold change to the negative control, n = 12
Procedure: (§2) Significance was calculated using Mann–Whitney U test. n = 5–8 independent experiments.

OCT1 [9] = target: T5, OCT1; assay: Uptake of the cocktail by HEK293 cells overexpressing human OCT1
Procedure: as §2

human OCT2 (hOCT2) = target: T6, human OCT2 (hOCT2) (Homo sapiens, UniProt O15244); assay: Uptake of the extended cocktail by HEK293 cells overexpressing hOCT2; type: in vitro ADME; conditions: Fig. 6
T6 construct: expressed in transfected cells
T6 sequence (O15244 1-555): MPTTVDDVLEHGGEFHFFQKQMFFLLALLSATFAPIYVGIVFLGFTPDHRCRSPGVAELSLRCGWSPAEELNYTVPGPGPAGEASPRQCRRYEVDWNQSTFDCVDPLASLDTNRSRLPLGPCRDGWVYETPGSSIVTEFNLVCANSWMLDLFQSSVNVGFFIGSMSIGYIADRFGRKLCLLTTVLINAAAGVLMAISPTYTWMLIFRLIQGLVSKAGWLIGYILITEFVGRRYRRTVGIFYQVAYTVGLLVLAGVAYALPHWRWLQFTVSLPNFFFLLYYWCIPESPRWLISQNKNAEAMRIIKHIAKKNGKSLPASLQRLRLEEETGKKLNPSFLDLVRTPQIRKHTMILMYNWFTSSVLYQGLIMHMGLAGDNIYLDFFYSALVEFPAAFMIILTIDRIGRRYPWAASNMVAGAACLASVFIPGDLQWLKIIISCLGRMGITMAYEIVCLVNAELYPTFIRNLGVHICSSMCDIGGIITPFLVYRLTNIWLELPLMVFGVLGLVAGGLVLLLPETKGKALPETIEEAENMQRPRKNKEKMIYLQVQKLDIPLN

human OCT1 (hOCT1) [10] = target: T3, human OCT1 (hOCT1)

SMILES: C[N+](C)(C)C[C@H](O)CC(=O)[O-] [L-carnitine]
- transport by OCTN1 (human OCTN1 (hOCTN1)): transported both L-carnitine and L-ergothioneine
- transport by OCTN2 (human OCTN2 (hOCTN2)): transported only L-carnitine

SMILES: C=C[C@H]1C[N@@]2CC[C@H]1C[C@@H]2[C@@H](O)c1ccnc2ccc(OC)cc12 [Quinidine, quinidine]
- IC50 (OCT1 [1]): 7.7 µM
- zolmitriptan uptake inhibited more potently than sumatriptan uptake (human OCT1 (hOCT1) [2]): 2.9 fold
- DDI risk R, victim drug trospium (mouse OCT1 [3]): 1.23
- cmax = Imax [4]: 1300 ng/mL
- fraction unbound [4]: 0.13
- tmax [4]: 2.00 h
- Imax, portal [5]: 6908 ng/mL
- ka [5]: 1.36 h⁻¹

SMILES: O=C(O[C@H]1C[C@H]2CC[C@@H](C1)[N+]21CCCC1)C(O)(c1ccccc1)c1ccccc1 [Trospium, trospium]
- Km (mOct1): 1.81 µM
- DDI risk R, victim drug fenoterol (OCT1 [6]): 1.00
- DDI risk R, victim drug ipratropium (OCT1 [6]): 1.01
- DDI risk R, victim drug metformin (OCT1 [6]): 1.01
- DDI risk R, victim drug methylnaltrexone (OCT1 [6]): 1.01
- DDI risk R, victim drug salbutamol (OCT1 [6]): 1.01
- DDI risk R, victim drug sumatriptan (OCT1 [6]): 1.00
- DDI risk R, victim drug zolmitriptan (OCT1 [6]): 1.01
- IC50 (human OCT1 (hOCT1) [2]; IC50 for inhibition of fenoterol uptake, substrate (victim) fenoterol 0.5 μM in cocktail): 15.8 ± 1.87 µM
- IC50 (human OCT1 (hOCT1) [2]; IC50 for inhibition of ipratropium uptake, substrate (victim) ipratropium 0.5 μM in cocktail): 9.37 ± 0.83 µM
- IC50 (human OCT1 (hOCT1) [2]; IC50 for inhibition of methylnaltrexone uptake, substrate (victim) methylnaltrexone 1 μM in cocktail): 14.7 ± 1.95 µM
- IC50 (human OCT1 (hOCT1) [2]; IC50 for inhibition of sumatriptan uptake, substrate (victim) sumatriptan 0.5 μM in cocktail): 16.8 ± 2.03 µM
- IC50 (human OCT1 (hOCT1) [2]; IC50 for inhibition of zolmitriptan uptake, substrate (victim) zolmitriptan 0.5 μM in cocktail): 10 ± 1.59 µM
- Km (human OCT1 (hOCT1) [7]): 16.1 µM
- mouse Oct1 uptake [fold change to pcDNA5] (mouse OCT1 [8]): 26.9 fold change to pcDNA5
- human OCT1 uptake [fold change to pcDNA5] (OCT1 [9]; cocktail, fold change to the negative control, n = 12): 28.6 fold change to pcDNA5
- transport by OCT1 (OCT1 [9]; extended cocktail, Fig. 6): transported only by OCT1 and OCT2
- cmax = Imax [4]: 5.20 ng/mL
- fraction unbound [4]: 0.33
- tmax [4]: 6.7 h
- t1/2 ([4]; ref Hardman, 2018, fenoterol Tzvetkov et al): 9.9 h
- Imax, portal [5]: 89.63 ng/mL
- ka [5]: 0.273 h⁻¹
- k el ([5]; human, in vivo, po, read-out: ke (converted)): 1.94e-05 s⁻¹
- I max, portal, u ([5]; unbound maximum inhibitor concentration at the inlet of the liver): 0.08 µM
- transport by OCT2 (human OCT2 (hOCT2)): transported only by OCT1 and OCT2
- IC50 (human OCT1 (hOCT1) [10]): 12.4 µM and 8.14 µM
